Settings: Liquid, Vibrating tube method

Cc1cccc(O)c1 [3-methylphenol]
Settings	mass density [kg/m3]
313.22 K, 1001 kPa	1019.1
313.22 K, 2012 kPa	1019.8
313.22 K, 3024 kPa	1020.3
313.22 K, 4007 kPa	1020.9
313.22 K, 4992 kPa	1021.4
313.22 K, 6027 kPa	1022
313.22 K, 7013 kPa	1022.6
313.22 K, 8000 kPa	1023.1
313.22 K, 9008 kPa	1023.7
313.22 K, 10014 kPa	1024.3
313.22 K, 11015 kPa	1024.8
313.22 K, 12040 kPa	1025.4
313.22 K, 13022 kPa	1026
313.22 K, 14023 kPa	1026.4
313.22 K, 15002 kPa	1026.9
313.22 K, 16009 kPa	1027.5
313.22 K, 17020 kPa	1028
313.22 K, 18021 kPa	1028.5
313.22 K, 19016 kPa	1029
313.22 K, 20026 kPa	1029.6
313.22 K, 21024 kPa	1030.1
313.22 K, 22026 kPa	1030.7
313.22 K, 23030 kPa	1031.1
313.22 K, 24017 kPa	1031.6
313.22 K, 25019 kPa	1032.2
322.9 K, 1014 kPa	1011.2
322.9 K, 2041 kPa	1011.8
322.9 K, 3002 kPa	1012.4
322.9 K, 4014 kPa	1013
322.9 K, 5012 kPa	1013.6
322.9 K, 6022 kPa	1014.2
322.9 K, 7020 kPa	1014.7
322.9 K, 8018 kPa	1015.3
322.9 K, 9020 kPa	1015.9
322.9 K, 10005 kPa	1016.4
322.9 K, 11018 kPa	1017
322.9 K, 12019 kPa	1017.6
322.9 K, 13017 kPa	1018.2
322.9 K, 14010 kPa	1018.7
322.9 K, 15022 kPa	1019.3
322.9 K, 16000 kPa	1019.8
322.9 K, 17011 kPa	1020.4
322.9 K, 18018 kPa	1020.9
322.9 K, 19018 kPa	1021.4
322.9 K, 20009 kPa	1022
322.9 K, 21019 kPa	1022.6
322.9 K, 22019 kPa	1023.1
322.9 K, 23006 kPa	1023.6
322.9 K, 24012 kPa	1024.1
322.9 K, 25019 kPa	1024.7
332.61 K, 1018 kPa	1003.3
332.61 K, 2014 kPa	1004
332.61 K, 3003 kPa	1004.5
332.61 K, 4030 kPa	1005.2
332.61 K, 5000 kPa	1005.8
332.61 K, 6022 kPa	1006.4
332.61 K, 7020 kPa	1006.9
332.61 K, 8020 kPa	1007.5
332.61 K, 9003 kPa	1008.1
332.61 K, 10014 kPa	1008.7
332.61 K, 11012 kPa	1009.3
332.61 K, 12000 kPa	1009.9
332.61 K, 13000 kPa	1010.4
332.61 K, 14028 kPa	1011
332.61 K, 15028 kPa	1011.6
332.61 K, 16023 kPa	1012.2
332.61 K, 17000 kPa	1012.7
332.61 K, 18008 kPa	1013.3
332.61 K, 19000 kPa	1013.9
332.61 K, 20001 kPa	1014.4
332.61 K, 21013 kPa	1014.9
332.61 K, 22010 kPa	1015.5
332.61 K, 23007 kPa	1016
332.61 K, 24000 kPa	1016.6
332.61 K, 25008 kPa	1017.1
342.27 K, 2018 kPa	995.8
342.27 K, 2999 kPa	996.4
342.27 K, 3998 kPa	997
342.27 K, 4976 kPa	997.6
342.27 K, 5984 kPa	998.3
342.27 K, 7059 kPa	998.9
342.27 K, 8070 kPa	999.7
342.27 K, 8967 kPa	1000.2
342.27 K, 9994 kPa	1000.8
342.27 K, 10921 kPa	1001.4
342.27 K, 11964 kPa	1002.1
342.27 K, 12971 kPa	1002.6
342.27 K, 13954 kPa	1003.2
342.27 K, 14960 kPa	1004
342.27 K, 15941 kPa	1004.3
342.27 K, 16963 kPa	1005.1
342.27 K, 17992 kPa	1005.8
342.27 K, 18963 kPa	1006.2
342.27 K, 19996 kPa	1006.7
342.27 K, 21003 kPa	1007.5
342.27 K, 21974 kPa	1008
342.27 K, 22968 kPa	1008.7
342.27 K, 24051 kPa	1009.2
342.27 K, 24971 kPa	1009.7
352.06 K, 1951 kPa	988.5
352.06 K, 2979 kPa	989.1
352.06 K, 4034 kPa	989.8
352.06 K, 4966 kPa	990.3
352.06 K, 5929 kPa	990.9
352.06 K, 7014 kPa	991.6
352.06 K, 8011 kPa	992.2
352.06 K, 8921 kPa	992.8
352.06 K, 9982 kPa	993.4
352.06 K, 10938 kPa	994
352.06 K, 11975 kPa	994.6
352.06 K, 12999 kPa	995.3
352.06 K, 13907 kPa	995.8
352.06 K, 14981 kPa	996.5
352.06 K, 15966 kPa	997.1
352.06 K, 16996 kPa	997.7
352.06 K, 17984 kPa	998.3
352.06 K, 18991 kPa	998.9
352.06 K, 20005 kPa	999.5
352.06 K, 21038 kPa	1000.1
352.06 K, 22019 kPa	1000.6
352.06 K, 23001 kPa	1001.2
352.06 K, 24029 kPa	1001.8
352.06 K, 24969 kPa	1002.3
361.9 K, 1990 kPa	980.5
361.9 K, 3001 kPa	981.2
361.9 K, 4024 kPa	981.8
361.9 K, 5019 kPa	982.5
361.9 K, 6014 kPa	983.1
361.9 K, 7025 kPa	983.7
361.9 K, 8019 kPa	984.4
361.9 K, 9010 kPa	985
361.9 K, 9978 kPa	985.6
361.9 K, 11019 kPa	986.3
361.9 K, 12038 kPa	986.9
361.9 K, 13020 kPa	987.6
361.9 K, 14021 kPa	988.2
361.9 K, 15006 kPa	988.8
361.9 K, 15970 kPa	989.4
361.9 K, 16988 kPa	990.1
361.9 K, 17991 kPa	990.7
361.9 K, 19016 kPa	991.4
361.9 K, 20042 kPa	992
361.9 K, 20983 kPa	992.6
361.9 K, 22034 kPa	993.3
361.9 K, 23021 kPa	993.9
361.9 K, 24011 kPa	994.6
361.9 K, 24912 kPa	995.1
